Laboratory results as given in US20180318383A1, “PEPTIDE HAVING NEURONAL LOSS PREVENTION AND REGENERATION EFFECTS, AND COMPOSITION CONTAINING SAME” (GEMVAX & KAEL CO., LTD., priority 2015, published 2018).

How the values were obtained:
NSCs = assay: Apoptosis of NSCs by DAPI and TUNEL staining; assay type: cell-based, rat; conditions: 20 μM Aβ25-35 + PEP1 up to 100 μM, 48 hours; p<0.05
Protocol: NSCs were placed onto collagen-coated glass coverslips with a diameter of 13 mm, and then treated in the manner described below: 1) […]; 2) treated with only 20 μM Aβ25-30; or 3) treated with 20 μM Aβ25-30 and PEP1 at each concentration (1, 10, 50, or 100 μM) for 48 hours.
The cells were washed with PBS and fixed with 4% paraformaldehyde for 20 minutes.
TUNEL staining is a method used to confirm apoptosis. To observe an intact, condensed or fragmented nucleus, the cells that have been stained with TUNEL were treated with 100 μg/ml DAPI for 20 minutes to stain the nucleus, and then mounted on a glass slide to which a DAPI-mixed mounting medium was applied.
The cells were observed under a fluorescence microscope and observed at excitation fluorescence wavelengths corresponding to DAPI and TUNEL.

GalC = GalC expression in 3XTg-AD mice (western blotting, immunostaining); assay type: in vivo; conditions: hippocampus and whole brain; s.c. three times a week for two months; vs control and Donepezil, same amount
Protocol: (§1) To test the efficacy of PEP1 on AD, AD transgenic mice (3XTg-AD) were purchased from Jackson Laboratory. Genetic characteristics of the transgenic mice are as follows: B6; 129-Psen1tm1Mpm Tg(APPSwe, tauP301L)1Lfa/Mmjax. […] One week after mice were confirmed as pregnant, new mice were delivered and weaned for 3 weeks. Two weeks later, mature mice were obtained.
(§2) During the preliminary breeding and the entire period of the experiment, a temperature was maintained at 23±2° C. and a relative humidity was maintained at 60±10%, and then the mice were raised under a 12-hour dark/light cycle. Experimental animals were divided into five groups, and each group included 10 animals. The divided experimental groups are as follows. […]
(§3) The PEP1, physiological saline, donepezil and scramble peptide were subcutaneously injected at each concentration three times a week for two months from the age of 12 months, and then two months after the injection, cognitive/memory behavior tests (passive avoidance test and Y maze test) were performed to examine a degree of improvement in cognitive function and memory function. After the brain was extracted to separate the hippocampus, the amounts of amyloid beta in the hippocampus and the whole brain, and the amounts of an amyloid beta oligomer and NFT generated by tau hyperphosphorylation were determined by western blotting and immunostaining. […]

[1] = system: AD transgenic mice (3XTg-AD); assay: Passive avoidance test; assay type: in vivo
Protocol: as §1, §2
as §3, with “[…],” for “scramble peptide were subcutaneously injected at each concentration three times a week for two months from the age of 12 months,”

EARPALLTSRLRFIPK (homo sapiens) [PEP1, hTERT-derived peptide consisting of 16 amino acids, telomerase location [611-626]]
degree of apoptosis of NSCs (NSCs): significantly decreased | Galc (GalC): increased | avoidance ability (passive avoidance test) ([1]; 3XTg-AD mice, treated from age 12 months, tested two months after injection, vs control and Donepezil): excellent avoidance ability | time and frequency of staying in the bright room (passive avoidance test) ([1]; severe AD models, 20-month-old or older 3XTg-AD mice, PEP1 1 mg/kg s.c., vs physiological saline): increased
